Results: the supplement of paper PMC12317010
Structures can show the parent of a compound that is named as a salt.

Test: collision cross section in nitrogen (drift tube, single-field); higher = larger gas-phase ion size
[1] = ion type: [M-H], ion source: ESI, ion mode: Negative
[2] = ion type: [M+Na], ion source: ESI, ion mode: Positive
[3] = ion type: [M+H], ion source: ESI, ion mode: Positive
[4] = ion type: [M+H], ion source: APCI, ion mode: Positive
[5] = ion source: ESI, ion mode: Positive, ion type: [M]+ (permanent cation)
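Further: chemical standards at 10 µM analysed by drift tube IMS-QTOF MS in about 3.95 torr nitrogen, mean of duplicate injections differing ≤1%, mass error below 10 ppm.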

collision cross section in nitrogen [1] | collision cross section in nitrogen [2] | collision cross section in nitrogen [3] | Structure (SMILES) | further results
151.9 Å² | – | – | Cc1ccc(S(=O)(=O)C(I)I)cc1 [Diiodomethyl 4-methylphenyl sulfone] | –
– | 179.8 Å² | – | CC(C)COC(=O)CCCCC(=O)OCC(C)C [Diisobutyl adipate] | –
– | 219.4 Å² | – | CC(C)CCCCCCOC(=O)CCCCC(=O)OCCCCCCC(C)C [Diisononyl adipate] | –
– | 220.8 Å² | – | CC(C)CCCCCCOC(=O)C1CCCCC1C(=O)OCCCCCCC(C)C (stereo not drawn) [Diisononyl cyclohexane-1,2-dicarboxylate] | –
– | – | 128.2 Å² | CC(O)CNCC(C)O (stereo not drawn) [Diisopropanolamine] | –
139.3 Å² | – | – | CC(C)(C)c1n[nH]c(=O)n(N)c1=O [Diketometribuzin] | –
– | 203.2 Å² | 197.8 Å² | COc1ccc([C@@H]2Sc3ccccc3N(CCN(C)C)C(=O)[C@@H]2OC(C)=O)cc1 [Diltiazem hydrochloride] | –
– | 146.5 Å² | – | COC(=O)CCSCCC(=O)OC [Dimethyl 3,3'-thiodipropionate] | –
– | 155.6 Å² | – | COC(=O)CCCCCCCC(=O)OC [Dimethyl nonanedioate] | –
– | 225.4 Å² | 224.6 Å² | CCCCCCCCOC(=O)CCCCCCCCC(=O)OCCCCCCCC [Dioctyl sebacate] | –
– | 217.9 Å² | – | C=CC(=O)OCC(CO)(COCC(COC(=O)C=C)(COC(=O)C=C)COC(=O)C=C)COC(=O)C=C [Dipentaerythritol pentaacrylate] | –
154.6 Å² | 157.9 Å² | 154.2 Å² | OCC(CO)(CO)COCC(CO)(CO)CO [Dipentaerythritol] | –
– | 168.8 Å² | – | CN(C)CCOC(c1ccccc1)c1ccccc1 [Diphenhydramine hydrochloride] | –
– | – | 137.8 Å² | c1ccc(Nc2ccccc2)cc1 [Diphenylamine] | collision cross section in nitrogen (ion type: [M+], ion source: APCI, ion mode: Positive): 133.9 Å²
160.6 Å² | – | – | O=C1NC(=O)C(c2ccccc2)(c2ccccc2)N1 [Diphenylhydantoin sodium] | –
162.8 Å² | 160.6 Å² | – | CC1(C)OC[C@@H]2O[C@@]3(C(=O)O)OC(C)(C)O[C@H]3[C@@H]2O1 [Diprogulic acid] | –
– | 178.6 Å² | 163.2 Å² | CCCOC(=O)c1ccc(C(=O)OCCC)nc1 [Dipropyl 2,5-pyridinedicarboxylate] | collision cross section in nitrogen [4]: 163.2 Å²
– | 191.8 Å² | – | CCCOC(=O)c1c(Cl)c(Cl)c(Cl)c(Cl)c1C(=O)OCCC [Dipropyl 3,4,5,6-tetrachlorobenzene-1,2-dicarboxylate] | –
– | 168.6 Å² | – | CCCOC(=O)CCCCC(=O)OCCC [Dipropyl hexanedioate] | –
173.9 Å² | – | – | Cc1c(N(C)CS(=O)(=O)O)c(=O)n(-c2ccccc2)n1C [Dipyrone monohydrate] | –

collision cross section in nitrogen [1] | collision cross section in nitrogen [2] | collision cross section in nitrogen [3] | Structure (SMILES) | further results
160.1 Å² | – | – | O=S(=O)(O)c1ccc2cc(O)c(S(=O)(=O)O)cc2c1 [Disodium 3-hydroxynaphthalene-2,7-disulfonate] | –
248.5 Å² | – | – | O=S(=O)(O)c1ccccc1C=Cc1ccc(-c2ccc(C=Cc3ccccc3S(=O)(=O)O)cc2)cc1 [Disodium 4,4'-bis(2-sulfostyryl)biphenyl] | –
– | 201.3 Å² | 213.3 Å² | CC(=O)OCCN(CCOC(C)=O)c1ccc(N=Nc2ccc([N+](=O)[O-])cc2C#N)cc1 [Disperse Red 82] | collision cross section in nitrogen [4]: 213.1 Å²
147.5 Å² | – | 150.9 Å² | CN(C)C(=O)Nc1ccc(Cl)c(Cl)c1 [Diuron] | collision cross section in nitrogen [4]: 151.3 Å²
206.1 Å² | – | – | CCCCC(CC)COC(=O)CC(C(=O)OCC(CC)CCCC)S(=O)(=O)O (stereo not drawn) [Docusate sodium] | –
162 Å² | – | – | CCCCCCCCCCCCOC(C)=O [Dodecyl acetate] | –
– | – | 164 Å² | CCCCCCCCCCCCN [Dodecylamine hydrochloride] | –
184.8 Å² | 167.4 Å² | – | CCCCCCCCCCCCc1ccc(S(=O)(=O)O)cc1 [Dodecylbenzenesulfonic acid] | –
– | – | – | CCCCCCCCCCCCNC(=N)N [Dodecylguanidine acetate] | collision cross section in nitrogen [4]: 175.2 Å²
– | – | – | CCCCCCCCCCCC[N+](C)(C)C [Dodecyltrimethylammonium bromide] | collision cross section in nitrogen [5]: 175.8 Å²
– | – | – | CCCCCCCCCCCC[N+](C)(C)C [Dodecyltrimethylammonium chloride] | collision cross section in nitrogen (ion source: APCI, ion mode: Positive, ion type: [M]+ (permanent cation)): 175.2 Å²; collision cross section in nitrogen [5]: 175.9 Å²
223.1 Å² | 232.8 Å² | 230 Å² | COc1cccc2c1C(=O)c1c(O)c3c(c(O)c1C2=O)C[C@@](O)(C(=O)CO)C[C@@H]3O[C@H]1C[C@H](N)[C@H](O)[C@H](C)O1 [Doxorubicin hydrochloride] | collision cross section in nitrogen [4]: 230.5 Å²
– | – | – | CN(C)CCOC(C)(c1ccccc1)c1ccccn1 (stereo not drawn) [Doxylamine succinate] | collision cross section in nitrogen [4]: 162 Å²
– | 149.7 Å² | 144.1 Å² | CCOc1ccc(NC(N)=O)cc1 [Dulcin] | collision cross section in nitrogen [4]: 144.5 Å²
– | 158 Å² | – | O=C(OCC1CCC2OC2C1)C1CCC2OC2C1 (stereo not drawn) [ECC] | –
– | 193.2 Å² | 185.7 Å² | Clc1ccc(COC(Cn2ccnc2)c2ccc(Cl)cc2Cl)cc1 (stereo not drawn) [Econazole nitrate] | collision cross section in nitrogen [4]: 185.8 Å²
168.1 Å² | – | – | O=C1Nc2ccc(Cl)cc2[C@@](C#CC2CC2)(C(F)(F)F)O1 [Efavirenz] | –
– | 211.4 Å² | 203.8 Å² | CN1CCN(c2ccccc2/C=C2\SCCN(c3ccc(Cl)c(Cl)c3)C2=O)CC1 [Elzasonan] | collision cross section in nitrogen [4]: 204 Å²
154.6 Å² | – | – | Cc1cc(O)c2c(c1)C(=O)c1cc(O)cc(O)c1C2=O [Emodin] | –
207.8 Å² | – | – | O=C1OC2(c3ccccc31)c1cc(Br)c(O)c(Br)c1Oc1c2cc(Br)c(O)c1Br [Eosin] | –

Structure (SMILES) | collision cross section in nitrogen [1] | collision cross section in nitrogen [2] | collision cross section in nitrogen [3] | further results
CC(C)COC(=O)c1ccccc1C(=O)OCC(C)C [Diisobutyl phthalate] | – | 181.8 Å² | – | –
CC(C)CCCCCCCOC(=O)c1ccccc1C(=O)OCCCCCCCC(C)C [Diisodecyl phthalate] | – | 226.5 Å² | – | –
CC(C)OC(=O)c1ccccc1C(=O)OC(C)C [Diisopropyl phthalate] | – | 169.9 Å² | – | –
CCNc1nc(NC(C)C(C)C)nc(SC)n1 (stereo not drawn) [Dimethametryn] | 166.9 Å² | – | 165 Å² | collision cross section in nitrogen [4]: 165.4 Å²
COCC(C)N(C(=O)CCl)c1c(C)csc1C (stereo not drawn) [Dimethenamid] | – | 167.9 Å² | 155.9 Å² | collision cross section in nitrogen [4]: 155.2 Å²
COc1ccc(C(=CC(=O)N2CCOCC2)c2ccc(Cl)cc2)cc1OC [Dimethomorph] | – | 208 Å² | 199.2 Å² | collision cross section in nitrogen [4]: 200.7 Å²
COP(=O)(CCC(=O)NCO)OC [Dimethyl (3-((hydroxymethyl)amino)-3-oxopropyl)phosphonate] | – | 144 Å² | – | –
COP(=O)(O)OC [Dimethyl phosphate] | 120.6 Å² | – | – | –
Cc1cc(OC(=O)N(C)C)nn1C(=O)N(C)C [Dimetilan] | – | 157.9 Å² | 153.1 Å² | collision cross section in nitrogen [4]: 152.5 Å²
CC(C)(C)C(O)/C(=C\c1ccc(Cl)cc1Cl)n1cncn1 (stereo not drawn) [Diniconazole] | – | – | 177.1 Å² | collision cross section in nitrogen [4]: 177.9 Å²
CCN(CC)c1c([N+](=O)[O-])cc(C(F)(F)F)c(N)c1[N+](=O)[O-] [Dinitramine] | 159.7 Å² | – | – | –
CC(C)(C)c1cc([N+](=O)[O-])cc([N+](=O)[O-])c1O [Dinoterb] | 150.1 Å² | – | – | –
CNC(=O)Oc1ccccc1C1OCCO1 [Dioxacarb] | – | 151.9 Å² | – | –
CCCCCOC(=O)c1ccccc1C(=O)OCCCCC [Dipentyl phthalate] | – | 193.4 Å² | – | –
CN(C)C(=O)C(c1ccccc1)c1ccccc1 [Diphenamid] | – | 164.6 Å² | 154.7 Å² | collision cross section in nitrogen [4]: 154.1 Å²
O=P(O)(Oc1ccccc1)Oc1ccccc1 [Diphenyl phosphate] | 153.6 Å² | – | 156.5 Å² | –
O=C(Oc1ccccc1)c1ccccc1C(=O)Oc1ccccc1 [Diphenyl phthalate] | – | 181.1 Å² | – | –
Cc1cc(C)c(C(=O)P(=O)(c2ccccc2)c2ccccc2)c(C)c1 [Diphenyl(2,4,6-trimethylbenzoyl)phosphine oxide] | – | 191.1 Å² | – | –
CCOP(=S)(OCC)SCCS(=O)(=O)CC [Disulfoton sulfone] | – | 166 Å² | – | –
CCCCCCCCCCCCCOC(=O)c1ccccc1C(=O)OCCCCCCCCCCCCC [Ditridecyl phthalate (mixture of branched chain isomers)] | – | 244.3 Å² | – | –
O=S1(=O)OCC2C(CO1)C1(Cl)C(Cl)=C(Cl)C2(Cl)C1(Cl)Cl (stereo not drawn) [Endosulfan sulfate] | 173.3 Å² | – | – | –
O=C(O)C1C2CCC(O2)C1C(=O)O (stereo not drawn) [Endothal] | 135.6 Å² | 140.1 Å² | – | –
